Columns and labels:
DU145 (Prostate Cancer) = assay: Cellular growth inhibition assay (MTT), DU145; assay type: cell-based; settings: Homo sapiens, DU-145, Table 1, 40 hr incubation
Procedure, shortened: (§1)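 Late-log-phase cells (K562 in RPMI, DU145 in DMED, PC3 in F12K; all 10% FBS, Glutamx, plus MEM non-essential amino acids for DU145 and PC3) were plated at 50000–200,000 cell/mL (1.1× final) with compounds added at 10× final. After 40 hr at 37° C, 5% CO2, MTT was added for 6 hours, then SDS/HCl lysis overnight and absorbance read at 590 nm.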

PC3 (Prostate Cancer) = assay: Cellular growth inhibition assay (MTT), PC3; assay type: cell-based; settings: Table 1, 40 hr incubation
Procedure, shortened: as §1

[1] = tested on: K562 (Chronic Myeloid Leukemia); assay: Cellular growth inhibition assay (MTT), K562; assay type: cell-based; settings: Homo sapiens, Table 1, 40 hr incubation
Procedure, shortened: as §1

[2] = target: T1, TelJak2 (BaF3 TELJAK cells, TEL/Jak2 fusion) (Homo sapiens, UniProt O60674); assay: Cellular growth inhibition assay (MTT), BaF3 TEL:JAK2 cell line; assay type: cell-based; settings: Table 1, 40 hr incubation
T1 construct: The regions encompassing the kinase domain of JAK2 (nucleotides 2994-3914); expressed in transfected cells; host or cells: BaF3 cells bearing the pTET-off plasmid, transfected with pTELJAK2 (pTRE2 vector); the other entry of the earlier key: ETV6 (P41212, Transcription factor ETV6)

[3] = target: T2, TelJak3 (BaF3 TELJAK cells, TEL/JAK3 fusion) (Homo sapiens, UniProt P52333); assay: Cellular growth inhibition assay (MTT), BaF3 TEL:JAK3 cell line; assay type: cell-based; settings: Table 1, 40 hr incubation
T2 construct: For JAK3 Sa1 I/Not I cleaved kinase domain PCR product was ligated with BamH I/Sa1 I cleaved TELproduct; expressed in transfected cells; host or cells: BaF3 cells bearing the pTET-off plasmid, transfected with pTELJAK3 (pTRE2 vector); the other entry of the earlier key: ETV6 (P41212, Transcription factor ETV6)

[4] = tested on: Tubulin (microtubule protein); assay: Tubulin assay (turbidometric assay of microtubule assembly); assay type: biochemical; settings: Table 1; 50 μM; absorbance at 340 nm, 37° C.
Protocol: Turbidometric assays of microtubule assembly were performed by incubating microtubule protein in cuvettes at 37° C. in a thermostatically controlled spectrophotometer measuring the change in absorbance at 340 nm over time. The microtubule protein was incubated with the each test compound at 0° C. and polymerisation was initiated by addition of 1 mM GTP, prior to heating to 37° C.

T1 sequence (O60674 with tags, fused parts or gaps): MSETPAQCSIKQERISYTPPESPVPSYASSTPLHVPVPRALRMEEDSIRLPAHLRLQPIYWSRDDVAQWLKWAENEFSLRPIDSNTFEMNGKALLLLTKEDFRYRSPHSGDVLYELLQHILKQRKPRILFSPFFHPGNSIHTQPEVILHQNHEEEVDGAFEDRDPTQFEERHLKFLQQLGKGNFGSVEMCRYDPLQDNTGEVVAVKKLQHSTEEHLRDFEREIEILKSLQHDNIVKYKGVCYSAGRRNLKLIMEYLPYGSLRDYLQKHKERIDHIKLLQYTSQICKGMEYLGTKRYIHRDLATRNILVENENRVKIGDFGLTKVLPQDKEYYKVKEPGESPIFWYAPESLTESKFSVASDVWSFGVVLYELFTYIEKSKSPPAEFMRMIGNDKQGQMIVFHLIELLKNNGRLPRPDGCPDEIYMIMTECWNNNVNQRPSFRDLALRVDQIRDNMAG
T2 sequence (P52333 with tags, fused parts or gaps): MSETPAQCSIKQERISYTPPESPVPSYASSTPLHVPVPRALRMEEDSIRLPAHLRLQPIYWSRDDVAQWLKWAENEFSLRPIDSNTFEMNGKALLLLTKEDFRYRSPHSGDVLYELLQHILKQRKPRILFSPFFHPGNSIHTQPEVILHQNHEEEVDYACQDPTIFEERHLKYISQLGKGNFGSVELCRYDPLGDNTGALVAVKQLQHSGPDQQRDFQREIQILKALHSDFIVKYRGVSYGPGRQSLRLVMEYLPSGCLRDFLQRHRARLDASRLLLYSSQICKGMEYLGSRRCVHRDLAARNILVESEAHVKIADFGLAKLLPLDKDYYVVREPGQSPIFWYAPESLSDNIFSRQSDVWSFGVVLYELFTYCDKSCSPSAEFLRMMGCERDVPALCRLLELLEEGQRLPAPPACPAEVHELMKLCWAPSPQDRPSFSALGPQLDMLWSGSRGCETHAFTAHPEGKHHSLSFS

Row | SMILES | inhibition at 20 µM (DU145 (Prostate Cancer)) [%] | inhibition at 20 µM (PC3 (Prostate Cancer)) [%] | inhibition at 20 µM [1] [%] | inhibition at 20 µM [2] [%] | inhibition at 20 µM [3] [%] | Tubulin inhibition of tubulin polymerisation [4]
1 | CCC[C@H](Nc1cncc(-c2ccc(NC(=O)NCC)c(OC)c2)n1)c1cccnc1 | > 50 | > 50 | > 50 | > 50 | > 50 | + (compounds which inhibited tubulin polymerisation by greater than 50% at 50 μM)
2 | CCCC(Nc1cncc(-c2ccc(OCCCCN(CC)CC)c(OC)c2)n1)c1ccccc1 (stereo not drawn) | > 50 | > 50 | > 50 | > 50 | > 50 | + (compounds which inhibited tubulin polymerisation by greater than 50% at 50 μM)
3 | CCCC(Nc1cncc(-c2ccc(NC(=O)NCC)c(OC)c2)n1)c1cccc(F)c1 (stereo not drawn) | > 50 | > 50 | > 50 | > 50 | > 50 | + (compounds which inhibited tubulin polymerisation by greater than 50% at 50 μM)
4 | CCC[C@H](Nc1cc(-c2ccc(NC(=O)NCC)c(OC)c2)ncn1)c1cccnc1 | > 50 | > 50 | > 50 | > 50 | > 50 | + (compounds which inhibited tubulin polymerisation by greater than 50% at 50 μM)
5 | CCCC(Nc1cncc(-c2ccc(NC(=O)NCC)c(C)c2)n1)c1cccnc1 (stereo not drawn) | > 50 | > 50 | > 50 | > 50 | > 50 | + (compounds which inhibited tubulin polymerisation by greater than 50% at 50 μM)
6 | CCCC(Nc1cncc(-c2ccc(CN)cc2)n1)c1ccccc1 (stereo not drawn) | > 50 | > 50 | > 50 | > 50 | > 50 | + (compounds which inhibited tubulin polymerisation by greater than 50% at 50 μM)
7 | CCNC(=O)Nc1ccc(-c2cncc(N[C@@H](CC)c3cccnc3)n2)cc1OC | > 50 | > 50 | > 50 | > 50 | > 50 | + (compounds which inhibited tubulin polymerisation by greater than 50% at 50 μM)
8 | CCC[C@H](Nc1nc(-c2ccc(O)c(OC)c2)ncc1C)c1cccnc1 | > 50 | > 50 | > 50 | > 50 | > 50 | + (compounds which inhibited tubulin polymerisation by greater than 50% at 50 μM)
9 | CCC[C@H](Nc1ccnc(-c2ccc(NC(=O)NCC)c(OC)c2)n1)c1cccnc1 | > 50 | > 50 | > 50 | > 50 | > 50 | + (compounds which inhibited tubulin polymerisation by greater than 50% at 50 μM)
10 | CCNC(=O)Nc1ccc(-c2cncc(N[C@@H](COCC)c3ccccc3)n2)cc1OC | > 50 | > 50 | > 50 | > 50 | > 50 | + (compounds which inhibited tubulin polymerisation by greater than 50% at 50 μM)
11 | CCCC(Nc1cncc(-c2ccc(NC(=O)NCC)c(CC)c2)n1)c1cccnc1 (stereo not drawn) | > 50 | > 50 | > 50 | > 50 | > 50 | + (compounds which inhibited tubulin polymerisation by greater than 50% at 50 μM)
12 | CCNC(=O)Nc1ccc(-c2ncc(C)c(N[C@@H](CC)c3cccnc3)n2)cc1OC | > 50 | > 50 | > 50 | > 50 | > 50 | + (compounds which inhibited tubulin polymerisation by greater than 50% at 50 μM)
13 | CCCC(Nc1cncc(-c2ccc(OCCCN3CCN(C)CC3)c(OC)c2)n1)c1ccccc1 (stereo not drawn) | > 50 | > 50 | > 50 | > 50 | > 50 | + (compounds which inhibited tubulin polymerisation by greater than 50% at 50 μM)
14 | CCNC(=O)Nc1ccc(-c2cncc(NC(CCOC)c3ccccc3)n2)cc1OC (stereo not drawn) | > 50 | > 50 | > 50 | > 50 | > 50 | + (compounds which inhibited tubulin polymerisation by greater than 50% at 50 μM)
15 | CCC[C@H](Nc1cncc(-c2ccc(NC(=O)NC)c(OC)c2)n1)c1cccnc1 | > 50 | > 50 | > 50 | > 50 | > 50 | + (compounds which inhibited tubulin polymerisation by greater than 50% at 50 μM)
16 | CCCC(Nc1cncc(-c2ccc(O)c(OC)c2)c1)c1ccccc1 (stereo not drawn) | > 50 | > 50 | > 50 | > 50 | > 50 | + (compounds which inhibited tubulin polymerisation by greater than 50% at 50 μM)
17 | CCCC(Nc1cncc(-c2ccc(NC(=O)NCC)c(C)c2)n1)c1ccccn1 (stereo not drawn) | > 50 | > 50 | > 50 | > 50 | > 50 | + (compounds which inhibited tubulin polymerisation by greater than 50% at 50 μM)
18 | CCCC(Nc1cc(-c2ccc(O)c(OC)c2)ncn1)c1cccnc1 (stereo not drawn) | > 50 | > 50 | > 50 | > 50 | > 50 | + (compounds which inhibited tubulin polymerisation by greater than 50% at 50 μM)
19 | CCCC(Nc1cncc(-c2ccc(OCCCN(CC)CC)c(OC)c2)n1)c1ccccc1 (stereo not drawn) | > 50 | > 50 | > 50 | > 50 | > 50 | + (compounds which inhibited tubulin polymerisation by greater than 50% at 50 μM)
20 | COc1cc(-c2nccc(N[C@@H](C)c3ccccc3)n2)ccc1O | > 50 | > 50 | > 50 | > 50 | > 50 | + (compounds which inhibited tubulin polymerisation by greater than 50% at 50 μM)
21 | CCCC(Nc1cncc(-c2ccc(CNC(=O)C3CCNCC3)cc2)n1)c1ccccc1 (stereo not drawn) | > 50 | > 50 | > 50 | > 50 | > 50 | + (compounds which inhibited tubulin polymerisation by greater than 50% at 50 μM)
22 | CCCC(Nc1cncc(-c2ccc(NC(=O)NCC)c(OC)c2)n1)c1cccnc1 (stereo not drawn) | > 50 | > 50 | > 50 | > 50 | > 50 | + (compounds which inhibited tubulin polymerisation by greater than 50% at 50 μM)
23 | CCCC(Nc1cncc(-c2ccc(NC(=O)NCC)c(C)c2)n1)c1cnccc1C (stereo not drawn) | > 50 | > 50 | > 50 | > 50 | > 50 | + (compounds which inhibited tubulin polymerisation by greater than 50% at 50 μM)
24 | CCCC(Nc1cncc(-c2ccc(OCCCCN)c(OC)c2)n1)c1ccccc1 (stereo not drawn) | > 50 | > 50 | > 50 | > 50 | > 50 | + (compounds which inhibited tubulin polymerisation by greater than 50% at 50 μM)

Reference: US9732046B2, “Substituted 1,2,4-triazines as tubulin inhibitors” (YM Biosciences Australia Pty Ltd., priority 2003, dated 2017)
